From ChEMBL document CHEMBL4229367, “Identification of multi-target inhibitors of leukotriene and prostaglandin E2 biosynthesis by structural tuning of the FLAP inhibitor BRP-7” (Eur J Med Chem, 2018)

target: T1, Polyunsaturated fatty acid 5-lipoxygenase (Homo sapiens) (UniProt P09917); details: 0.3 uM
T1 sequence (whole entry): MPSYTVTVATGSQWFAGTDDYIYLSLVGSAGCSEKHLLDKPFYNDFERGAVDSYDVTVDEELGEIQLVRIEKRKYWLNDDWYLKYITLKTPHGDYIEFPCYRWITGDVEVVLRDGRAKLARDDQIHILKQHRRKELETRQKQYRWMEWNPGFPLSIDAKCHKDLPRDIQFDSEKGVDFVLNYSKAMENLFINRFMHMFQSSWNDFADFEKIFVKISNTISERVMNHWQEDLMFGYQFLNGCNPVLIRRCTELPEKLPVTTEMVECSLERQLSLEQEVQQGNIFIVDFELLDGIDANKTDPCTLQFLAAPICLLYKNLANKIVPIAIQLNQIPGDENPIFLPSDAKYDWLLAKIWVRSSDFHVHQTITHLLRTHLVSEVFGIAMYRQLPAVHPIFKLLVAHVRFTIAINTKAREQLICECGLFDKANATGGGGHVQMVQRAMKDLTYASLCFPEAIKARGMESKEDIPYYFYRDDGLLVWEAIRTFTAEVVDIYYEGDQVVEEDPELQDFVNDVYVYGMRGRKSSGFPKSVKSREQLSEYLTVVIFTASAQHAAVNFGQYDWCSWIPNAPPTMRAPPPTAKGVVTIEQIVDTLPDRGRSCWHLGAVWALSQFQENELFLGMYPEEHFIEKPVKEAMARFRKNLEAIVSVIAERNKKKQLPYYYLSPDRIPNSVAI
Description: Inhibition of recombinant human 5-LO expressed in Escherichia coli BL21 at 0.3 uM incubated for 15 mins prior to prewarming for 30 secs followed by CaCl2+ and arachidonic acid addition and measured after 10 mins by RP-HPLC analysis

Row | SMILES | inhibition
1 | CC(=O)N(O)C/C=C/c1cccc(Oc2ccccc2)c1 | > 70%

target: T2, Arachidonate 5-lipoxygenase-activating protein (Homo sapiens) (UniProt P20292); experiment: Inhibition of FLAP in A23187-stimulated human neutrophils assessed as reduction in 5-LO product formation at 1 uM preincubated for 15 mins followed by A23187 and arachidonic acid addition and measured after 10 mins by UV based RP-HPLC analysis; details: not given
T2 sequence (whole entry): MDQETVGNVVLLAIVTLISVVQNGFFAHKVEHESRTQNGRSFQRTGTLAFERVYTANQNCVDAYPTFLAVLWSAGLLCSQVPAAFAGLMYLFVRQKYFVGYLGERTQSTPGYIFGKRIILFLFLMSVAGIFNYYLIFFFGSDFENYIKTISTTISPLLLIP

Row | SMILES | inhibition
2 | CC(C)Cc1ccc(C(C)c2nc3c(CC(=O)O)cccc3n2Cc2ccccc2Cl)cc1 (stereo not drawn) | 50%

target: T3, Prostaglandin E synthase (Homo sapiens) (UniProt O14684); experiment: Inhibition of mPGES1 in IL-1beta-stimulated human A549 cell microsomal fractions assessed as reduction in PGE2 production at 3 uM preincubated for 15 mins followed by PGH2 substrate addition and measured after 1 min by RP-HPLC analysis relative to control; details: not given
T3 sequence (whole entry): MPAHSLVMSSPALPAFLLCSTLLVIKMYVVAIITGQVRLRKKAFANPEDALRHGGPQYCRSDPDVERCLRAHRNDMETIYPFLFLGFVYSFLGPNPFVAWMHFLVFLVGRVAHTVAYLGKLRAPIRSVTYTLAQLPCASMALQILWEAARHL

Row | SMILES | inhibition
3 | CC(C)Cc1ccc(C(C)c2nc3c(CCC(=O)O)cccc3n2Cc2ccccc2Cl)cc1 (stereo not drawn) | > 50%
4 | CC(C)Cc1ccc(C(C)c2nc3cc(C(=O)O)ccc3n2Cc2ccccc2Cl)cc1 (stereo not drawn) | > 50%
5 | CC(C)Cc1ccc(C(C)c2nc3cc(-c4nnn[nH]4)ccc3n2Cc2ccccc2Cl)cc1 (stereo not drawn) | > 50%
6 | CC(C)Cc1ccc(C(C)c2nc3cc(-c4noc(=O)[nH]4)ccc3n2Cc2ccccc2Cl)cc1 (stereo not drawn) | > 50%
7 | CC(C)Cc1ccc(C(C)c2nc3c(CC(=O)O)cccc3n2Cc2ccccc2Cl)cc1 (stereo not drawn) | > 50%

Next, values leading:

Row | inhibition | SMILES
8 | > 50% | CC(C)Cc1ccc(C(C)c2nc3cc(-c4n[nH]c(=S)o4)ccc3n2Cc2ccccc2Cl)cc1 (stereo not drawn)
9 | > 50% | CC(C)Cc1ccc(C(C)c2nc3cc(OCC(=O)O)ccc3n2Cc2ccccc2Cl)cc1 (stereo not drawn)
10 | > 50% | CC(C)Cc1ccc(C(C)c2nc3cc(-c4cccc(C(=O)O)c4)ccc3n2Cc2ccccc2Cl)cc1 (stereo not drawn)

target: T2, Arachidonate 5-lipoxygenase-activating protein (Homo sapiens); experiment: Inhibition of FLAP in A23187-stimulated human neutrophils assessed as remaining enzyme activity by measuring 5-LO product formation at 0.1 uM preincubated for 15 mins followed by A23187 and arachidonic acid addition and measured after 10 mins by UV based RP-HPLC analysis (reference value: 100%); details: not given

Row | SMILES | Activity
11 | CC(C)Cc1ccc(C(C)c2nc3c(CCC(=O)O)cccc3n2Cc2ccccc2Cl)cc1 (stereo not drawn) | 85%
12 | CC(C)Cc1ccc(C(C)c2nc3cc(C(=O)O)ccc3n2Cc2ccccc2Cl)cc1 (stereo not drawn) | 71.1%
13 | CC(C)Cc1ccc(C(C)c2nc3cc(-c4nnn[nH]4)ccc3n2Cc2ccccc2Cl)cc1 (stereo not drawn) | 90.2%
14 | CC(C)Cc1ccc(C(C)c2nc3cc(-c4noc(=O)[nH]4)ccc3n2Cc2ccccc2Cl)cc1 (stereo not drawn) | 87.6%
15 | CC(C)Cc1ccc(C(C)c2nc3c(CC(=O)O)cccc3n2Cc2ccccc2Cl)cc1 (stereo not drawn) | 99.3%

The next lines start with the values.

Row | Activity | SMILES
16 | 41.4% | CC(C)Cc1ccc(C(C)c2nc3cc(-c4n[nH]c(=S)o4)ccc3n2Cc2ccccc2Cl)cc1 (stereo not drawn)
17 | 67.3% | CC(C)Cc1ccc(C(C)c2nc3cc(OCC(=O)O)ccc3n2Cc2ccccc2Cl)cc1 (stereo not drawn)
18 | 33% | CC(C)Cc1ccc(C(C)c2nc3cc(-c4cccc(C(=O)O)c4)ccc3n2Cc2ccccc2Cl)cc1 (stereo not drawn)

target: T4, Leukotriene C4 synthase (Homo sapiens, UniProt Q16873); experiment: Inhibition of human LTC4 synthase expressed in HEK293 cell microsomes preincubated for 10 mins followed by LTA4-methyl ester addition and measured after 10 mins by UPLC-MS/MS analysis; details: not given
T4 sequence (Q16873 whole entry): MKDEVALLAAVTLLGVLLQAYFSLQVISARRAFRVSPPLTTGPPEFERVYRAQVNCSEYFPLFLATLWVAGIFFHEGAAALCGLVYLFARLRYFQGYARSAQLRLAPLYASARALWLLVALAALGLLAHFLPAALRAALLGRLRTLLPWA

Row | SMILES | IC50
19 | CC(C)Cc1ccc(C(C)c2nc3cc(-c4n[nH]c(=S)o4)ccc3n2Cc2ccccc2Cl)cc1 (stereo not drawn) | 6.19 µM

target: T5, Polyunsaturated fatty acid 5-lipoxygenase (Homo sapiens, UniProt P09917); experiment: Inhibition of recombinant human 5-LO expressed in Escherichia coli BL21 incubated for 15 mins prior to prewarming for 30 secs followed by CaCl2+ and arachidonic acid addition and measured after 10 mins by RP-HPLC analysis; details: not given
T5 sequence (P09917 whole entry): T1 sequence (whole entry)

Row | SMILES | IC50
20 | CC(C)Cc1ccc(C(C)c2nc3cc(-c4n[nH]c(=S)o4)ccc3n2Cc2ccccc2Cl)cc1 (stereo not drawn) | 0.6 µM

target: T2, Arachidonate 5-lipoxygenase-activating protein (Homo sapiens); experiment: Inhibition of FLAP in A23187-stimulated human neutrophils assessed as remaining enzyme activity by measuring 5-LO product formation at 1 uM preincubated for 15 mins followed by A23187 and arachidonic acid addition and measured after 10 mins by UV based RP-HPLC analysis (reference value: 100%); details: not given

Row | SMILES | Activity
21 | CC(C)Cc1ccc(C(C)c2nc3c(CCC(=O)O)cccc3n2Cc2ccccc2Cl)cc1 (stereo not drawn) | 1%
22 | CC(C)Cc1ccc(C(C)c2nc3cc(C(=O)O)ccc3n2Cc2ccccc2Cl)cc1 (stereo not drawn) | 0%
23 | CC(C)Cc1ccc(C(C)c2nc3cc(-c4nnn[nH]4)ccc3n2Cc2ccccc2Cl)cc1 (stereo not drawn) | 0%
24 | CC(C)Cc1ccc(C(C)c2nc3cc(-c4noc(=O)[nH]4)ccc3n2Cc2ccccc2Cl)cc1 (stereo not drawn) | 0.67%
25 | CC(C)Cc1ccc(C(C)c2nc3c(CC(=O)O)cccc3n2Cc2ccccc2Cl)cc1 (stereo not drawn) | 49.3%

Continued, values first:

Row | Activity | SMILES
26 | 0% | CC(C)Cc1ccc(C(C)c2nc3cc(-c4n[nH]c(=S)o4)ccc3n2Cc2ccccc2Cl)cc1 (stereo not drawn)
27 | 6.38% | CC(C)Cc1ccc(C(C)c2nc3cc(OCC(=O)O)ccc3n2Cc2ccccc2Cl)cc1 (stereo not drawn)
28 | 0% | CC(C)Cc1ccc(C(C)c2nc3cc(-c4cccc(C(=O)O)c4)ccc3n2Cc2ccccc2Cl)cc1 (stereo not drawn)

target: T6, Arachidonate 5-lipoxygenase-activating protein (Homo sapiens, UniProt P20292); experiment: Inhibition of FLAP in A23187-stimulated human neutrophils assessed as reduction in 5-LO product formation preincubated for 15 mins followed by A23187 and arachidonic acid addition and measured after 10 mins by UV based RP-HPLC analysis; details: not given
T6 sequence (P20292 whole entry): T2 sequence (whole entry)

Row | SMILES | IC50
29 | CC(C)Cc1ccc(C(C)c2nc3c(CCC(=O)O)cccc3n2Cc2ccccc2Cl)cc1 (stereo not drawn) | 0.19 µM
30 | CC(C)Cc1ccc(C(C)c2nc3cc(C(=O)O)ccc3n2Cc2ccccc2Cl)cc1 (stereo not drawn) | 0.28 µM
31 | CC(C)Cc1ccc(C(C)c2nc3cc(-c4nnn[nH]4)ccc3n2Cc2ccccc2Cl)cc1 (stereo not drawn) | 0.32 µM
32 | CC(C)Cc1ccc(C(C)c2nc3cc(-c4noc(=O)[nH]4)ccc3n2Cc2ccccc2Cl)cc1 (stereo not drawn) | 0.27 µM
33 | CC(C)Cc1ccc(C(C)c2nc3c(CC(=O)O)cccc3n2Cc2ccccc2Cl)cc1 (stereo not drawn) | > 1 µM

Next, values leading:

Row | IC50 | SMILES
34 | 0.05 µM | CC(C)Cc1ccc(C(C)c2nc3cc(-c4n[nH]c(=S)o4)ccc3n2Cc2ccccc2Cl)cc1 (stereo not drawn)
35 | 0.18 µM | CC(C)Cc1ccc(C(C)c2nc3cc(OCC(=O)O)ccc3n2Cc2ccccc2Cl)cc1 (stereo not drawn)
36 | 0.074 µM | CC(C)Cc1ccc(C(C)c2nc3cc(-c4cccc(C(=O)O)c4)ccc3n2Cc2ccccc2Cl)cc1 (stereo not drawn)

target: T7, Prostaglandin E synthase (Homo sapiens, UniProt O14684); experiment: (§1) Inhibition of mPGES1 in IL-1beta-stimulated human A549 cell microsomal fractions assessed as reduction in PGE2 production preincubated for 15 mins followed by PGH2 substrate addition and measured after 1 min by RP-HPLC analysis relative to control; details: not given
T7 sequence (O14684 whole entry): T3 sequence (whole entry)

Row | SMILES | IC50
37 | CC(C)Cc1ccc(C(C)c2nc3cc(-c4n[nH]c(=S)o4)ccc3n2Cc2ccccc2Cl)cc1 (stereo not drawn) | 0.42 µM

target: T3, Prostaglandin E synthase (Homo sapiens); experiment: as §1; details: not given

Row | SMILES | inhibition
38 | CC(C)Cc1ccc(C(C)c2nc3cc(-c4n[nH]c(=S)o4)ccc3n2Cc2ccccc2Cl)cc1 (stereo not drawn) | Dose-dependent effect
